Laboratory results reported in patent US20090012038A1, “Methods for microbial biofilm destruction and interference with microbial cellular physiology” (priority 2004, published 2009).

Experiments:
S. oneidensis biofilms = experiment: Stop-of-flow-induced detachment of biofilms in hydrodynamic flow chamber (CLSM, COMSTAT); type: cell-based, Shewanella oneidensis MR-1
Description: Transcription is not required for the oxygen starvation-induced detachment. To directly test whether transcription is required for detachment upon rapid decrease in molecular oxygen concentration, we grew biofilms of S. oneidensis in LM medium for 12 h, and subsequently switched the medium to a LM medium amended with 10 μg/ml rifampicin for 10 or 40 minutes, respectively. After that time period, the medium flow was stopped to induce detachment.
External addition of c-di-GMP reversibly prevents biofilm detachment. […] We, therefore, predicted that amending the flow through medium of a biofilm in a hydrodynamic system with c-di-GMP should prevent the induction of detachment after applying a stop-of-flow. To test this hypothesis, biofilms of wild type S. oneidensis were grown in LM medium. […] After 30 min, the flow was stopped to induce detachment and the non-detached biomass was quantified. […]
Microscopic visualization of and image acquisition from biofilms took place at the Stanford Biofilm Research Center using an upright Zeiss LSM510 Confocal Laser Scanning Microscope (Carl Zeiss, Jena, Germany) equipped with the following objectives: 10×/0.3 Plan-Neofluar, 20×/0.5W Achroplan, and 40×/1.2W C-Apochromat. […] Biofilm parameters, such as biomass, and average biofilm thickness were quantified with the program COMSTAT (Heydorn et al., 2000).

[1] = system: S. oneidensis strain AS129 biofilm cells (IPTG inducible gfp); experiment: Transcription test in biofilm cells: IPTG-inducible gfp, GFP fluorescence by CLSM; type: cell-based, Shewanella oneidensis; conditions: 10 mM IPTG in flow-through medium; after 1 hour
Description: In order to assure that rifampicin indeed inhibited transcription in biofilm cells under those conditions, we designed an experiment to test transcription in biofilm cells. Tester cells were S. oneidensis cells tagged with an IPTG inducible gfp under control of Pt, which is repressed by LacIQ. […] Upon addition of 10 mM ITPG to the flow-through-medium, the induction of GFP in biofilm cells was readily observed by CLSM throughout the entire biofilm and quantified. This assay is very sensitive, and after 1 hour, about 20% of the maximal inducible GFP fluorescence was observed.

Row | SMILES | detachment after stop-of-flow following removal of c-di-GMP (S. oneidensis biofilms; flow resumed with LM devoid of c-di-GMP, 2 h incubation, then flow stopped) | detachment after stop-of-flow (S. oneidensis biofilms; wild type biofilm 12 h in LM, medium amended with 5 mM c-di-GMP, flow stopped after 30 min) | GFP fluorescence, share of the maximal inducible GFP fluorescence [1]
1 | Nc1nc2c(ncn2[C@@H]2O[C@@H]3COP(=O)(O)O[C@H]4[C@@H](O)[C@H](n5cnc6c(=O)[nH]c(N)nc65)O[C@@H]4COP(=O)(O)O[C@H]3[C@H]2O)c(=O)[nH]1 [c-di-GMP, cyclic-bis(3′,5′)guanylic acid] | the biofilm still detached | no detachment was observed | 
2 | CC(C)S[C@@H]1O[C@H](CO)[C@H](O)[C@H](O)[C@H]1O [IPTG, isopropyl-D-D-thiogalactopyranosid] |  |  | about 20%
